For the test, the target named is human NaV 1.7 (Homo sapiens, UniProt Q15858). The test can be described thus: E-VIPR optical membrane potential assay with electrical stimulation. To be noted: sodium channel inhibition; read-out: Binned Activity Data (IC50). Type of test: cell-based. A digest of the protocol:
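Membrane-potential read-out: background-subtracted 460 nm/580 nm ratio during a 9 s current-controlled stimulus, 400 Hz scan. Before stimulation, NaV1.7-HEK cells carried coumarin/oxonol dye and compound (final DMSO 0.625%) for 20–35 min at room temperature; tetracaine 125 μM served as positive control.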

The record followed here is patent publication US9365588B2, “Benzoxazines as modulators of ion channels” (Vertex Pharmaceuticals Incorporated, priority 2011, dated 2016).

By IC50 is commonly meant the concentration at which inhibition is half-maximal.

human NaV 1.7, sequence (Q15858 whole entry): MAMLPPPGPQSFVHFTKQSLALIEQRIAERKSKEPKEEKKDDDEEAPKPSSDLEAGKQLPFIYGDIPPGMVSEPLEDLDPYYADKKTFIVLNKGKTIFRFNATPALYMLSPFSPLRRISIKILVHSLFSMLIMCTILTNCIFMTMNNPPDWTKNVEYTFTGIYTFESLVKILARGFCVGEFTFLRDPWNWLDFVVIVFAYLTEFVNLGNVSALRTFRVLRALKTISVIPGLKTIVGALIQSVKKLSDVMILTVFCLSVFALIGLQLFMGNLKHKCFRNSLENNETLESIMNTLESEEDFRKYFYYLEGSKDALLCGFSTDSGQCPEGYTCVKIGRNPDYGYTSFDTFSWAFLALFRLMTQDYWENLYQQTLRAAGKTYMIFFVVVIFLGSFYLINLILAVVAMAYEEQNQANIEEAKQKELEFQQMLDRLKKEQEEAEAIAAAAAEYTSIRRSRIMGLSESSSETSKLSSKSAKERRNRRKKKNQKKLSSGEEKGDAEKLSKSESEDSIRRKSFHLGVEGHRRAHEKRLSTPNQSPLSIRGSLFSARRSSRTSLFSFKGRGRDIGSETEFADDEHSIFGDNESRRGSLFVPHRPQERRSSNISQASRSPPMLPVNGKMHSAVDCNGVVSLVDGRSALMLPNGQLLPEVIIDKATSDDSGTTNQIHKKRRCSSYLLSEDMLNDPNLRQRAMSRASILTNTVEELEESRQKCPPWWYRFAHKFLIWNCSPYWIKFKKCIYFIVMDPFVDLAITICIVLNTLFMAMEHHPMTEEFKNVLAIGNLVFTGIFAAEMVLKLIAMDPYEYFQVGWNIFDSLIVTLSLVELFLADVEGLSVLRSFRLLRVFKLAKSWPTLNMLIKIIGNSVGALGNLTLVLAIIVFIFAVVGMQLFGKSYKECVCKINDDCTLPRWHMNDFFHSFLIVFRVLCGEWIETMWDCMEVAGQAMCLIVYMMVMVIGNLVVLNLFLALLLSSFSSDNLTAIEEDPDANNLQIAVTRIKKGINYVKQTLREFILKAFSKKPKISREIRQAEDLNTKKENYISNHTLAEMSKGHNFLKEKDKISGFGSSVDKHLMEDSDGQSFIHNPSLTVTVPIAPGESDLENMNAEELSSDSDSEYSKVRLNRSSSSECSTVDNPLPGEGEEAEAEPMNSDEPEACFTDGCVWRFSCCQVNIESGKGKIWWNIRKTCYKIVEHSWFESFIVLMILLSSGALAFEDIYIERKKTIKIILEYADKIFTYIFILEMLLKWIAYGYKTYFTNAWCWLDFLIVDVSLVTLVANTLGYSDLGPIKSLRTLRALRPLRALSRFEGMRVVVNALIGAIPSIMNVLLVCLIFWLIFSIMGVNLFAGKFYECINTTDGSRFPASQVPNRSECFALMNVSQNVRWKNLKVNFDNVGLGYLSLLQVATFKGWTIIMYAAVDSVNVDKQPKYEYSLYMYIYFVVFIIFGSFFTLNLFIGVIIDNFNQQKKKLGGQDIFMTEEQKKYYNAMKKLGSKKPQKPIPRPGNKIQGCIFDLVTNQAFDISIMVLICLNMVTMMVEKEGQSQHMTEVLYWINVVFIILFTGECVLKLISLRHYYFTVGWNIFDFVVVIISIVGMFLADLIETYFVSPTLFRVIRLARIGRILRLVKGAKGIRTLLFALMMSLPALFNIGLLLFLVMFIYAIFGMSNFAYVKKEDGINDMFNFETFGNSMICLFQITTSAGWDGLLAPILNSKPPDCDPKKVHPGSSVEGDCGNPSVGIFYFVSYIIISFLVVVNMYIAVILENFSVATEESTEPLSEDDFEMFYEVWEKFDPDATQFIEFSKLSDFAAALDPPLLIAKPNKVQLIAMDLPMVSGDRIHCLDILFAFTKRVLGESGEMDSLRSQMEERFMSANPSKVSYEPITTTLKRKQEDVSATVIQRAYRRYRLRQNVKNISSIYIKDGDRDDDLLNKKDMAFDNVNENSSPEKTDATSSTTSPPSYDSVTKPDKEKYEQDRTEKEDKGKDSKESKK

As to `Cn1ncc2c1-c1ccccc1OC21CCN(C(=O)c2ccnc3ccccc23)CC1` [Compound 322], the 50% inhibitory concentration (IC50) lay within 2 to 5 µM.
On to `Cn1ncc2c1-c1ccccc1OC21CCN(C(=O)c2cccc3c2OC(F)(F)O3)CC1` [Compound 345], for which the half-inhibitory concentration (IC50) is no more than 2 µM.
For `COc1ccc(F)cc1C(=O)N1CCC2(CC1)Oc1ccccc1-n1c(C#N)ccc12` [Compound 115] the value was no more than 2 µM; for `Cc1cc(C(=O)N2CCC3(CC2)Oc2ccccc2-n2c(C#N)ccc23)ccc1O` [Compound 76], no more than 2 µM; for `CS(=O)(=O)c1ccc(C(=O)N2CCC3(CC2)Oc2cc(Cl)ccc2-n2cccc23)c(Cl)c1` [Compound 808], no more than 2 µM.
As to `O=C(c1ccc(OS(=O)(=O)C(F)(F)F)cc1)N1CCC2(CC1)Oc1ccccc1-n1c(C(F)(F)F)ccc12` [Compound 891], the IC50 was no more than 2 µM.
For `CC(C)Oc1ccc(C(=O)N2CCC3(CC2)Oc2ccccc2-c2c3cnn2C)cc1C#N` [Compound 306], the concentration for half-maximal inhibition (IC50) was no more than 2 µM.
As to `CC(C)Oc1ccc(C(=O)N2CCC3(CC2)Oc2ccc(F)cc2-c2nn(C)cc23)cc1` [Compound 117], the half-maximal inhibitory concentration (IC50) is no more than 2 µM.
For `COc1ccc(C(=O)N2CCC3(CC2)Oc2cc(Cl)ccc2-n2cccc23)cc1C(F)(F)F` [Compound 857] the value was no more than 2 µM.
For `CC(C)Oc1ccc(C(=O)N2CCC3(CC2)Oc2ccccc2-n2c3ccc2S(C)(=O)=O)cc1CO` [Compound 296] the value was no more than 2 µM; for `O=C(c1ccc(OCCO)cc1)N1CCC2(CC1)Oc1ccccc1-n1cccc12` [Compound 184], no more than 2 µM.
With `CC(C)Oc1ccc(C(=O)N2CCC3(CC2)Oc2ccccc2-n2c(C#N)ccc23)cc1F` [Compound 42], the IC50 is no more than 2 µM.
With `COc1cc(C(=O)N2CCC3(CC2)Oc2cc(Cl)ccc2-n2cccc23)ccc1O[C@@H]1CCC[C@H]1O` [Compound 348], the IC50 is no more than 2 µM.
Consider `CC(C)NS(=O)(=O)c1ccc(C(=O)N2CCC3(CC2)Oc2ccc(F)cc2-c2nn(C)cc23)cc1` [Compound 580], for which the half-inhibitory concentration (IC50) is no more than 2 µM.
The figure for `COc1cccc(F)c1C(=O)N1CCC2(CC1)Oc1ccccc1-n1c(C#N)ccc12` [Compound 519] is no more than 2 µM; for `CC(C)C(O)c1ccc(C(=O)N2CCC3(CC2)Oc2ccccc2-c2c3cnn2C)cc1` (stereo not drawn) [Compound 711] it is no more than 2 µM; for `Cn1ncc2c1-c1ccccc1OC21CCN(C(=O)c2ccccc2OC(F)(F)F)CC1` [Compound 452] it is no more than 2 µM.
On to `C[C@](O)(CO)c1ccc(C(=O)N2CCC3(CC2)Oc2ccccc2-n2c(C(F)(F)F)ccc23)cc1` [Compound 231], for which the IC50 was greater than 5 µM.
For `COC(=O)c1c(OC)cccc1C(=O)N1CCC2(CC1)Oc1ccccc1-n1c(C#N)ccc12` [Compound 101] the value was no more than 2 µM; for `COc1ccc(C(=O)N2CCC3(CC2)Oc2cc(Cl)ccc2-n2c(CO)ccc23)cc1C(F)(F)F` [Compound 300], no more than 2 µM.
As to `CCc1ccc(C(=O)N2CCC3(CC2)Oc2cc(Cl)ccc2-n2cccc23)cc1OC` [Compound 697], the 50% inhibitory concentration (IC50) is no more than 2 µM.
With `CC(C)Oc1ccc(C(=O)N2CCC3(CC2)Oc2ccccc2-c2c3cnn2C)c(OC(C)C)c1` [Compound 788], the IC50 is no more than 2 µM.
Turning to `COc1cc(C(=O)N2CCC3(CC2)Oc2cc(F)ccc2-n2cccc23)ccc1C1(O)COC1` [Compound 612], the half-inhibitory concentration (IC50) was no more than 2 µM.
For the molecule `CNC(=O)c1ccc2n1-c1ccc(Cl)cc1OC21CCN(C(=O)c2ccc(OC(C)C)c(C)c2)CC1` [Compound 245], the concentration for half-maximal inhibition (IC50) was 2 to 5 µM.
Consider `COc1cc(C(=O)N2CCC3(CC2)Oc2ccccc2-n2cccc23)ccc1OC[C@@H](C)OC` [Compound 203], for which the 50% inhibitory concentration (IC50) was no more than 2 µM.
Consider `N#Cc1ccc2n1-c1ccccc1OC21CCN(C(=O)c2ccc(OC[C@H](O)CO)cc2)CC1` [Compound 789], for which the half-maximal inhibitory concentration (IC50) is greater than 5 µM.
In the case of `COc1cc(C(=O)N2CCC3(CC2)Oc2ccccc2-n2cccc23)ccc1OC1CCC(O)C1` (stereo not drawn) [Compound 678], the IC50 was no more than 2 µM.
`COc1ccc(C(=O)N2CCC3(CC2)Oc2ccccc2-n2c3ccc2S(C)(=O)=O)cc1C(F)(F)F` [Compound 819]: the half-inhibitory concentration (IC50) was no more than 2 µM.
As to `COc1ccccc1C(=O)N1CCC2(CC1)Oc1cc(Cl)ccc1-n1cccc12` [Compound 81], the half-maximal inhibitory concentration (IC50) is no more than 2 µM.
For `Cn1ncc2c1-c1ccccc1OC21CCN(C(=O)c2ccc(OCCOC(F)(F)F)c(C#N)c2)CC1` [Compound 26] the value was no more than 2 µM; for `COc1ccc(C(=O)N2CCC3(CC2)Oc2cc(F)ccc2-n2c(C#N)ccc23)cc1C(F)(F)F` [Compound 479], greater than 5 µM; for `COc1c(F)cccc1C(=O)N1CCC2(CC1)Oc1ccccc1-c1c2cnn1C` [Compound 699], no more than 2 µM.
`COc1cc(C(=O)N2CCC3(CC2)Oc2ccccc2-c2c3cnn2C)ccc1OCC(C)C` [Compound 47]: the IC50 was no more than 2 µM.
Consider `C[S+]([O-])c1ccc(C(=O)N2CCC3(CC2)Oc2ccccc2-n2c(C#N)ccc23)cc1C(F)(F)F` (stereo not drawn) [Compound 684], for which the IC50 was no more than 2 µM.
Take `Cn1ncc2c1-c1ccccc1OC21CCN(C(=O)c2cccnc2Oc2ccc(F)cc2)CC1` [Compound 862]: the IC50 is no more than 2 µM.
For `Cn1ncc2c1-c1ccccc1OC21CCN(C(=O)c2ccc(OC(C)(C)C)cc2)CC1` [Compound 28], the IC50 is 2 to 5 µM.
Regarding `CC(C)S(=O)(=O)c1ccc(C(=O)N2CCC3(CC2)Oc2ccccc2-n2ccnc23)cc1` [Compound 119], the IC50 lay in the range of 2 to 5 µM.
For `COCCOc1ccc(C(=O)N2CCC3(CC2)Oc2ccccc2-c2c3cnn2C)cc1OC` [Compound 420] the value was no more than 2 µM; for `Cc1cc(C(=O)N2CCC3(CC2)Oc2cc(Cl)ccc2-n2cccc23)ccc1OC(C)C` [Compound 737], no more than 2 µM.
With `Cc1cc(C(C)(C)O)ccc1C(=O)N1CCC2(CC1)Oc1ccccc1-n1c(C#N)ccc12` [Compound 633], the half-inhibitory concentration (IC50) is no more than 2 µM.
For the molecule `COc1ccccc1C(=O)N1CCC2(CC1)Oc1ccccc1-c1c2cnn1C` [Compound 672], the half-maximal inhibitory concentration (IC50) is no more than 2 µM.
The figure for `Cn1ncc2c1-c1ccccc1OC21CCN(C(=O)c2csc(-c3ccccc3)n2)CC1` [Compound 331] is greater than 5 µM; for `Cn1ncc2c1-c1ccccc1OC21CCN(C(=O)c2ccc(OC(C)(C)C)cc2F)CC1` [Compound 704] it is no more than 2 µM.
As for `CC(=O)c1ccc2n1-c1ccccc1OC21CCN(C(=O)c2ccccc2OC(F)F)CC1` [Compound 360], the IC50 is no more than 2 µM.
Regarding `CCc1ccc(C(=O)N2CCC3(CC2)Oc2cc(F)ccc2-n2cccc23)cc1OC` [Compound 200], the half-maximal inhibitory concentration (IC50) was no more than 2 µM.
With `Cc1ccccc1C(=O)N1CCC2(CC1)Oc1ccccc1-c1c2cnn1C` [Compound 217], the IC50 lay within 2 to 5 µM.
For `Cc1cc(C(=O)N2CCC3(CC2)Oc2cc(F)ccc2-n2cccc23)ccc1C#N` [Compound 215], the IC50 is no more than 2 µM.
As to `CCCOc1ccc(C(=O)N2CCC3(CC2)Oc2ccccc2-n2cccc23)cc1C(F)(F)F` [Compound 69], the IC50 is no more than 2 µM.
For `CC(C)(O)c1ccc(C(=O)N2CCC3(CC2)Oc2ccccc2-n2c(C#N)ccc23)cc1CO` [Compound 364], the 50% inhibitory concentration (IC50) is no more than 2 µM.
`Cc1cc(C)cc(C(=O)N2CCC3(CC2)Oc2cc(Cl)ccc2-n2cccc23)c1` [Compound 222]: the IC50 is no more than 2 µM.
For the molecule `CC(C)S(=O)(=O)c1ccc(C(=O)N2CCC3(CC2)Oc2cc(F)ccc2-c2c3cnn2C)cc1` [Compound 662], the IC50 is 2 to 5 µM.
For `O=C(c1ccc(C2(O)COC2)cc1)N1CCC2(CC1)Oc1ccccc1-n1c(C(F)(F)F)ccc12` [Compound 9] the value was no more than 2 µM.
Turning to `CNS(=O)(=O)c1ccc(C(=O)N2CCC3(CC2)Oc2ccccc2-n2c(C(F)(F)F)ccc23)cc1C` [Compound 558], the IC50 was no more than 2 µM.
For the molecule `Cn1ncc2c1-c1ccccc1OC21CCN(C(=O)c2ccccc2OC(F)F)CC1` [Compound 381], the half-inhibitory concentration (IC50) was no more than 2 µM.
For the molecule `CC(C)Oc1ccc(C(=O)N2CCC3(CC2)Oc2ccccc2-c2c3cnn2C)cc1CO` [Compound 66], the IC50 was no more than 2 µM.
Regarding `CN(C)CCOc1ccc(C(=O)N2CCC3(CC2)Oc2cc(F)ccc2-n2cccc23)cc1C(F)(F)F` [Compound 411], the IC50 is greater than 5 µM.
In the case of `COCCOc1ccc(C(=O)N2CCC3(CC2)Oc2ccccc2-n2c(C)ccc23)cc1OC` [Compound 596], the half-maximal inhibitory concentration (IC50) was no more than 2 µM.
For `Cn1ncc2c1-c1ccccc1OC21CCN(C(=O)c2ccccc2OC2CCOCC2)CC1` [Compound 292], the half-maximal inhibitory concentration (IC50) is no more than 2 µM.
Turning to `Cn1ncc2c1-c1ccccc1OC21CCN(C(=O)c2ccc(S(=O)(=O)C(F)F)cc2)CC1` [Compound 626], the half-inhibitory concentration (IC50) is no more than 2 µM.
Consider `Cn1ncc2c1-c1ccc(F)cc1OC21CCN(C(=O)c2ccccc2OC(F)(F)F)CC1` [Compound 468], for which the IC50 was no more than 2 µM.
For `COCCOc1cc(F)c(C(=O)N2CCC3(CC2)Oc2cc(Cl)ccc2-n2cccc23)cc1OC` [Compound 628] the value was no more than 2 µM; for `Cn1ncc2c1-c1ccccc1OC21CCN(C(=O)c2cn(C)c3ccccc23)CC1` [Compound 218], no more than 2 µM; for `N#Cc1ccc2n1-c1ccccc1OC21CCN(C(=O)c2ccc(F)c(Cl)c2)CC1` [Compound 659], greater than 5 µM.
Regarding `COc1cc(C(=O)N2CCC3(CC2)Oc2cc(F)ccc2-n2cccc23)ccc1OC[C@@H]1COC(C)(C)O1` [Compound 693], the IC50 was no more than 2 µM.
For the molecule `COc1cc(C(=O)N2CCC3(CC2)Oc2ccccc2-c2c3cnn2CC(F)(F)F)ccc1OCCC(C)C` [Compound 785], the half-inhibitory concentration (IC50) is no more than 2 µM.
With `Cn1ncc2c1-c1cc(F)ccc1OC21CCN(C(=O)c2ccccc2C(F)F)CC1` [Compound 309], the IC50 is greater than 5 µM.
With `Cn1ncc2c1-c1ccc(F)cc1OC21CCN(C(=O)c2ccccc2OC(F)F)CC1` [Compound 258], the IC50 is no more than 2 µM.
Turning to `Cn1ncc2c1-c1ccccc1OC21CCN(C(=O)c2ccc(CC(C)(C)O)cc2)CC1` [Compound 473], the IC50 is no more than 2 µM.
For the molecule `CCCOc1ccc(C(=O)N2CCC3(CC2)Oc2cccnc2-n2cccc23)cc1C(F)(F)F` [Compound 805], the IC50 is no more than 2 µM.
